Laboratory results: patent publication US8440700B2, “Substituted aryloxazoles and their use” (Bayer Intellectual Property GmbH, priority 2007, dated 2013)

Tests used:
Format in all cases: cell-based
[1] = target: T1, adenosine A1 receptor (Homo sapiens, UniProt P30542); assay: Indirect determination of adenosine agonism by way of gene expression (luciferase, CHO cells), A1; details: CHO cells stably transfected with A1 receptor cDNA; 1 μM forskolin; 50% inhibition of luciferase answer
T1 construct: expressed in transfected cells; host or cells: CHO (Chinese Hamster Ovary)
T1 sequence (P30542 1-326): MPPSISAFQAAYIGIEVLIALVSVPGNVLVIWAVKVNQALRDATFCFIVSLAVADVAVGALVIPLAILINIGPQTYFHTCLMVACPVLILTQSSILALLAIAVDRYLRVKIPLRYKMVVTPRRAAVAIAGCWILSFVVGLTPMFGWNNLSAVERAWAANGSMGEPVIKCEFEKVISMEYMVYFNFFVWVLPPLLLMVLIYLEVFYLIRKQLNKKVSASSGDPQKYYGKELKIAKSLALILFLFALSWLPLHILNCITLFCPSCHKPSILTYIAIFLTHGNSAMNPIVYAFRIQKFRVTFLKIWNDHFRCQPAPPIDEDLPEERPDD
From the text: (§1) B-1. Indirect Determination of the Adenosine Agonism by Way of Gene Expression
(§2) Cells of the CHO (Chinese Hamster Ovary) permanent cell line are transfected stably with the cDNA for the adenosine receptor subtypes A1, A2a and A2b. The adenosine A1 receptors are coupled to the adenylate cyclase by way of Gi proteins, while the adenosine A2a and A2b receptors are coupled by way of Gs proteins. In correspondence with this, the formation of cAMP in the cell is inhibited or stimulated, respectively. After that, expression of the luciferase is modulated by way of a cAMP-dependent promoter. The luciferase test is optimized, with the aim of high sensitivity and reproducibility, low variance and good suitability for implementation on a robot system, by varying several test parameters, such as cell density, duration of the growth phase and the test incubation, forskolin concentration and medium composition. The following test protocol is used for pharmacologically characterizing cells and for the robot-assisted substance screening:
(§3) The stock cultures are grown, at 37° C. and under 5% CO2, in DMEM/F12 medium containing 10% FCS (foetal calf serum) and in each case split 1:10 after 2-3 days. The test cultures are seeded in 384-well plates with 2000 cells per well and grown at 37° C. for approx. 48 hours. The medium is then replaced with a physiological sodium chloride solution (130 mM sodium chloride, 5 mM potassium chloride, 2 mM calcium chloride, 20 mM HEPES, 1 mM magnesium chloride hexahydrate, 5 mM sodium bicarbonate, pH 7.4). The substances to be tested, which are dissolved in DMSO, are pipetted into the test cultures (maximum final concentration of DMSO in the test mixture: 0.5%) in a dilution series of from 5×10^−11M to 3×10^−6M (final concentration). 10 minutes later, forskolin is added to the A1 cells and all the cultures are subsequently incubated at 37° C. for four hours. After that, 35 μl of a solution which is composed of 50% lysis reagent (30 mM disodium hydrogenphosphate, 10% glycerol, 3% TritonX100, 25 mM TrisHCl, 2 mM dithiotreitol (DTT), pH 7.8) and 50% luciferase substrate solution (2.5 mM ATP, 0.5 mM luciferin, 0.1 mM coenzyme A, 10 mM tricine, 1.35 mM magnesium sulphate, 15 mM DTT, pH 7.8) are added to the test cultures, which are shaken for approx. 1 minute and the luciferase activity is measured using a camera system. The EC50 values are determined, i.e., the concentrations at which 50% of the luciferase answer is inhibited in the case of the A1 cell, and, respectively, 50% of the maximum stimulation with the corresponding substance is achieved in the case of the A2b and A2a cells. […] Pharmacol., 357 (1998), 1-9).
(§4) Table 18 below lists the EC50 values of representative working examples for the receptor stimulation on adenosine A1, A2a and A2b receptor subtypes: […]

[2] = target: T2, adenosine A2a receptor (Homo sapiens, UniProt P29274); assay: Indirect determination of adenosine agonism by way of gene expression (luciferase, CHO cells), A2a; details: CHO cells stably transfected with A2a receptor cDNA; 50% of maximum luciferase stimulation
T2 construct: expressed in transfected cells; host or cells: CHO (Chinese Hamster Ovary)
From the text: as §1, §2, §3, §4

[3] = target: T3, adenosine A2b receptor (Homo sapiens, UniProt P29275); assay: Indirect determination of adenosine agonism by way of gene expression (luciferase, CHO cells), A2b; details: CHO cells stably transfected with A2b receptor cDNA; 50% of maximum luciferase stimulation
T3 construct: expressed in transfected cells; host or cells: CHO (Chinese Hamster Ovary)
T3 sequence (P29275 1-332): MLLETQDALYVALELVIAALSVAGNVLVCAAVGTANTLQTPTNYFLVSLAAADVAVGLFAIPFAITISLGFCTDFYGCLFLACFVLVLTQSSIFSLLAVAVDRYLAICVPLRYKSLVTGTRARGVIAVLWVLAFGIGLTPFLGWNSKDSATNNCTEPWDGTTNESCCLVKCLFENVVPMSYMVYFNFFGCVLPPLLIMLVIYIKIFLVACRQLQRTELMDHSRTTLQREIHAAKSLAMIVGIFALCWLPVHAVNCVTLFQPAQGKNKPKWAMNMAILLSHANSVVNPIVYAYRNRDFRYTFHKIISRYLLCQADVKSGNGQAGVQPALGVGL
From the text: as §1, §2, §3, §4

T2 sequence (P29274 whole entry): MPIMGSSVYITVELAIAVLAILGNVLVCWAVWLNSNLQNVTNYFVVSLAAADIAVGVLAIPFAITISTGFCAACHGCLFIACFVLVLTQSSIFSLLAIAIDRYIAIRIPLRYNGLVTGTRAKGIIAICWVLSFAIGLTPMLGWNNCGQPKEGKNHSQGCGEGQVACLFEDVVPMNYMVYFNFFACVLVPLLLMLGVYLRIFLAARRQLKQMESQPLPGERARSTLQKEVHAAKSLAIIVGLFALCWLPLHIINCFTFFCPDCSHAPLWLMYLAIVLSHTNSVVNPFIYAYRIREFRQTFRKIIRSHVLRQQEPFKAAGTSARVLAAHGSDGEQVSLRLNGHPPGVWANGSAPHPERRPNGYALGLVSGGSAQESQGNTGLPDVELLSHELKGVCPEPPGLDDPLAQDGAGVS

SMILES | EC50 [1] | EC50 [2] | EC50 [3]
N#Cc1c(N)nc(SCc2coc(-c3ccc(F)c(Cl)c3)n2)c(C#N)c1-c1ccc(OCCO)cc1 [Example 10] | 0.5 nM | 1.13 µM | 0.922 µM
N#Cc1c(N)nc(SCc2coc(-c3ccc(F)c(F)c3)n2)c(C#N)c1-c1ccc(OCCO)cc1 [Example 11] | 0.3 nM | 0.703 µM | 0.845 µM
Cc1cc(-c2nc(CSc3nc(N)c(C#N)c(-c4ccc(OCCO)cc4)c3C#N)co2)ccc1F [Example 31] | 0.9 nM | 0.467 µM | 0.315 µM
Cc1oc(-c2ccc(F)cc2)nc1CSc1nc(N)c(C#N)c(-c2ccc(OC[C@@H](O)CO)cc2)c1C#N [Example 50] | 0.4 nM |  | 0.118 µM
Cc1oc(-c2ccccc2F)nc1CSc1nc(N)c(C#N)c(-c2ccc(OC[C@@H](O)CO)cc2)c1C#N [Example 61] | 0.7 nM | 0.439 µM | 0.221 µM
COc1ccc(-c2nc(CSc3nc(N)c(C#N)c(-c4ccc(OC[C@H](O)CO)cc4)c3C#N)c(C)o2)cc1 [Example 66] | 0.9 nM | 0.575 µM | 0.37 µM
N#Cc1c(N)nc(SCc2coc(-c3ccc(F)cc3)n2)c(C#N)c1-c1ccc(OC[C@@H](O)CO)cc1 [Example 81] | 0.3 nM | 0.064 µM | 0.02 µM
Cc1oc(-c2ccc(C(=O)O)cc2)nc1CSc1nc(N)c(C#N)c(-c2ccc(OCC(C)(C)O)cc2)c1C#N [Example 95, 4-{4-[({6-Amino-3,5-dicyano-4-[4-(2-hydroxy-2-methylpropoxy)phenyl]pyridin-2-yl}thio)methyl]-5-methyl-1,3-oxazol-2-yl}benzoic acid] | 0.5 nM |  | 
C[C@H](O)COc1ccc(-c2c(C#N)c(N)nc(SCc3coc(-c4ccc(Cl)cc4)n3)c2C#N)cc1 [Example 106] | 0.3 nM | 0.318 µM | 0.048 µM
N#Cc1c(N)nc(OCc2coc(-c3ccc(Cl)cc3)n2)c(C#N)c1-c1ccc(OCCO)cc1 [Example 110, 2-Amino-6-{[2-(4-chlorophenyl)-1,3-oxazol-4-yl]methoxy}-4-[4-(2-hydroxyethoxy)phenyl]pyridine-3,5-dicarbonitrile] | 0.3 nM | 0.497 µM | 0.095 µM
N#Cc1c(N)nc(OCc2coc(-c3ccc(F)c(F)c3)n2)c(C#N)c1-c1ccc(OCCO)cc1 [Example 114] | 0.2 nM | 1.97 µM | 0.969 µM
N#Cc1c(SCc2coc(-c3ccc(Cl)cc3)n2)nc(N2CCCC2)c(C#N)c1-c1ccc(OCCO)cc1 [Example 116, 2-({[2-(4-Chlorophenyl)-1,3-oxazol-4-yl]methyl}sulfanyl)-4-[4-(2-hydroxyethoxy)phenyl]-6-(pyrrolidin-1-yl)pyridine-3,5-dicarbonitrile] | 0.4 nM |  | 0.698 µM
N#Cc1c(SCc2coc(-c3ccc(Cl)cc3)n2)nc(N2CC[C@@H](O)C2)c(C#N)c1-c1ccc(OCCO)cc1 [Example 127] | 0.4 nM | 0.984 µM | 0.283 µM
N#Cc1c(SCc2coc(-c3ccc(Cl)cc3)n2)nc(N2CC(O)C2)c(C#N)c1-c1ccc(OCCO)cc1 [Example 128] | 0.1 nM | 1.05 µM | 0.237 µM
N#Cc1c(NCCO)nc(OCc2coc(-c3ccc(Cl)cc3)n2)c(C#N)c1-c1ccc(OCCO)cc1 [Example 129] | 0.4 nM |  | 

The remaining compounds from weak to strong by EC50 [1], led by results:

EC50 [1] | EC50 [2] | EC50 [3] | SMILES
8.9 nM | 0.522 µM | 0.336 µM | N#Cc1c(N)nc(SCc2ncoc2-c2ccc(Cl)cc2)c(C#N)c1-c1ccc(OC[C@@H](O)CO)cc1 [Example 93]
4.1 nM |  | 2.25 µM | N#Cc1c(NCCO)nc(SCc2coc(-c3ccc(Cl)cc3)n2)c(C#N)c1-c1ccc(OCCO)c(F)c1 [Example 122, 2-({[2-(4-Chlorophenyl)-1,3-oxazol-4-yl]methyl}sulfanyl)-4-[3-fluoro-4-(2-hydroxyethoxy)phenyl]-6-[(2-hydroxyethyl)amino]pyridine-3,5-dicarbonitrile]
0.8 nM | 0.461 µM | 0.089 µM | Cc1cc(-c2nc(CSc3nc(N)c(C#N)c(-c4ccc(OC[C@H](O)CO)cc4)c3C#N)co2)ccc1Cl [Example 80]
0.6 nM |  | 0.245 µM | N#Cc1c(OCc2coc(-c3ccc(Cl)cc3)n2)nc(N2CC(O)C2)c(C#N)c1-c1ccc(OCCO)cc1 [Example 130]
0.5 nM | 0.684 µM | 0.078 µM | N#Cc1c(SCc2coc(-c3ccc(Cl)cc3)n2)nc(N2CCC2)c(C#N)c1-c1ccc(OCCO)cc1 [Example 126]
0.4 nM | 0.3 µM | 0.1 µM | N#Cc1c(N)nc(SCc2coc(-c3ccc(Cl)cc3)n2)c(C#N)c1-c1ccc(OC[C@H](O)CO)cc1 [Example 49, 2-Amino-6-({[2-(4-chlorophenyl)-1,3-oxazol-4-yl]methyl}sulfanyl)-4-(4-{[(2R)-2,3-dihydroxypropyl]oxy}phenyl)pyridine-3,5-dicarbonitrile]
0.4 nM | 0.072 µM | 0.226 µM | N#Cc1c(N)nc(SCc2coc(-c3ccc(F)cc3)n2)c(C#N)c1-c1ccc(OC[C@H](O)CO)cc1 [Example 101]
0.3 nM | 0.138 µM | 0.0044 µM | N#Cc1c(N)nc(SCc2coc(-c3ccc(Cl)cc3)n2)c(C#N)c1-c1ccc(OC[C@@H](O)CO)cc1 [Example 48, 2-Amino-6-({[2-(4-chlorophenyl)-1,3-oxazol-4-yl]methyl}sulfanyl)-4-(4-{[(2S)-2,3-dihydroxypropyl]oxy}phenyl)pyridine-3,5-dicarbonitrile]
0.3 nM |  | 0.236 µM | Cc1oc(-c2ccc(Cl)cc2)nc1CSc1nc(N)c(C#N)c(-c2ccc(OC[C@@H](O)CO)cc2)c1C#N [Example 60]
0.3 nM | 1.95 µM |  | N#Cc1c(NC[C@@H](O)CO)nc(SCc2coc(-c3ccc(Cl)cc3)n2)c(C#N)c1-c1ccc(OCCO)cc1 [Example 119]
0.2 nM | 0.525 µM | 0.044 µM | COC(=O)c1ccc(-c2nc(CSc3nc(N)c(C#N)c(-c4ccc(OC[C@@H](O)CO)cc4)c3C#N)c(C)o2)cc1 [Example 57]
0.2 nM | 1.44 µM | 1.09 µM | N#Cc1c(NCCO)nc(SCc2coc(-c3ccc(Cl)cc3)n2)c(C#N)c1-c1ccc(OCCO)cc1 [Example 117]
